Experimental data from patent publication EP2801573A1, “Hydantoine derivatives as CD38 inhibitors” (SANOFI, priority 2013, dated 2014).

target: T1, human recombinant CD38 enzyme (Homo sapiens, UniProt P28907); test: Human recombinant enzyme assay (fluorimetric CD38 enzyme assay, ε-NAD substrate); type: biochemical; conditions: recombinant CD38 100 ng/ml, ε-NAD 100 µM, pH = 6.0, 37°C, reaction time 30 min; read-out: IC50 (nM) ENAD
T1 construct: purchased R&D Systems H7006
T1 sequence (P28907 1-300): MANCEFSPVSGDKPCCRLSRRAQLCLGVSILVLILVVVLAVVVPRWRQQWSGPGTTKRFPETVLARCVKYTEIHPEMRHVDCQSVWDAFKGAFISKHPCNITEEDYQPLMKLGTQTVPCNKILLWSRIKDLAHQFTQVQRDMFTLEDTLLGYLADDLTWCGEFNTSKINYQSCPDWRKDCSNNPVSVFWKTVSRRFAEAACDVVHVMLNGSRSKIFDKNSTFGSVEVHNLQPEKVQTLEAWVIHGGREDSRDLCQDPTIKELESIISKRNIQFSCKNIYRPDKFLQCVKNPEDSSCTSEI
Method: Enzyme assay on human recombinant CD38 enzyme were performed in order to determine the in vitro potency of the newly synthesized compounds. IC50 values were determined for the test compounds and used to explore the structure-activity relationships (SAR).
N6-etheno-NAD (ε-NAD), a NAD analogue previously shown to be a convenient substrate of CD38 enzyme activity (Graeff et al. J. Biol. Chem. 269, pp 30260-30367, […]) was used to measure the activity of human recombinant CD38 and cell surface enzyme activity.
A fluorimetric CD38 enzyme assay was performed as described by Graeff et al. The reaction was started with 10 µl of N6-etheno-NAD (ε-NAD) substrate, final concentration 100 µM, in a final volume of 0.1 ml buffered with 50 mM HEPES, 0.05% BRIJ, pH = 6.0 containing 100 ng/ml recombinant CD38 (R&D Systems, H7006). Cleavage of ε-NAD, which causes a 10-fold fluorescence enhancement, was continuously followed at 37°C in a BMG Polarstar spectrofluorometer at an emission wavelength of 410 nm and an excitation of 300 nm, reaction time was 30 min. NADase activity was expressed as Δ relative fluorescence/min. The rate of enzyme reactions were compared in the presence and absence of inhibitor molecule, the IC50 values were calculated with Biostat Speed program.

| Compound | IC50 |
| --- | --- |
| CCOC(=O)CN1C(=O)N/C(=C\c2ccncc2)C1=O [Compound 43, {2,5-Dioxo-4-[1-pyridin-4-yl-meth-(Z)-ylidene]-imidazolidin-1-yl}-acetic acid ethyl ester] | 224 nM |
| O=C1N/C(=C\c2ccncc2)C(=O)N1CCCN1CCOCC1 [Compound 44, 3-(3-Morpholin-4-yl-propyl)-5-[1-pyridin-4-yl-meth-(Z)-ylidene]-imidazolidine-2,4-dione] | 151 nM |
| CC(C)(CO)CN1C(=O)N/C(=C\c2ccncc2)C1=O [Compound 52, 3-(3-Hydroxy-2,2-dimethyl-propyl)-5-[1-pyridin-4-yl-meth-(Z)-ylidene]-imidazolidine-2,4-dione] | 42 nM |
| CC(C)(O)CCN1C(=O)N/C(=C\c2ccncc2)C1=O [Compound 57, 3-(3-Hydroxy-3-methyl-butyl)-5-[1-pyridin-4-yl-meth-(Z)-ylidene] -imidazolidine-2,4-dione] | 20 nM |
| O=C1N/C(=C\c2ccncc2)C(=O)N1CC1(CO)CCC1 [Compound 63, 3-(1-Hydroxymethyl-cyclobutylmethyl)-5-[1-pyridin-4-yl-meth-(Z)-ylidene]-imidazolidine-2,4-dione] | 12 nM |
| O=C1N/C(=C\c2ccncc2)C(=O)N1CC1(CO)CCCC1 [Compound 64, 3-(1-Hydroxymethyl-cyclopentylmethyl)-5-[1-pyridin-4-yl-meth-(Z)-ylidene]-imidazolidine-2,4-dione] | 16 nM |
| O=C1N/C(=C\c2ccncc2)C(=O)N1CCNC(=O)C(F)(F)F [Compound 65, N-(2-{2,5-Dioxo-4-[1-pyridin-4-yl-meth-(Z)-ylidene]-imidazolidin-1-yl}-ethyl)-2,2,2-trifluoro-acetamide] | 240 nM |

The next lines start with the values.

| IC50 | Compound |
| --- | --- |
| 34 nM | C[C@@H]1CN(C(=O)c2ccc(N3C(=O)N/C(=C\c4ccncc4)C3=O)cc2)C[C@H](C)O1 [Compound 45, 3-[4-((2R,6S)-2,6-Dimethyl-morpholine-4-carbonyl)-phenyl]-5-[1-pyridin-4-yl-meth-(Z)-ylidene]-imidazolidine-2,4-dione] |
| 490 nM | O=C(O)CN1C(=O)N/C(=C\c2ccncc2)C1=O [Compound 46, {2,5-Dioxo-4-[1-pyridin-4-yl-meth-(Z)-ylidene]-imidazolidin-1-yl}-acetic acid] |
| 74 nM | CC1CCN(C(=O)c2ccc(N3C(=O)N/C(=C\c4ccncc4)C3=O)cc2)CC1 [Compound 47, 3-[4-(4-Methyl-piperidine-1-carbonyl)-phenyl]-5-[1-pyridin-4-yl-meth-(Z)-ylidene]-imidazolidine-2,4-dione] |
| 52 nM | O=C(c1ccc(N2C(=O)N/C(=C\c3ccncc3)C2=O)cc1)N1CCCC1 [Compound 48, 5-[1-Pyridin-4-yl-meth-(Z)-ylidene]-3-[4-(pyrrolidine-1-carbonyl)-phenyl]-imidazolidine-2,4-dione] |
| 50 nM | O=C(NC1CCCC1)c1ccc(N2C(=O)N/C(=C\c3ccncc3)C2=O)cc1 [Compound 49, N-Cyclopentyl-4-{2,5-dioxo-4-[1-pyridm-4-yl-meth-(Z)-ylidene]-imidazolidm-1-yl}-benzamide] |
| 63 nM | O=C(NC1CC1)c1ccc(N2C(=O)N/C(=C\c3ccncc3)C2=O)cc1 [Compound 50, N-Cyclopropyl-4-{2,5-dioxo-4-[1-pyridin-4-yl-meth-(Z)-ylidene]-imidazolidin-1-yl}-benzamide] |
| 63 nM | O=C(NC1CCCCC1)c1ccc(N2C(=O)N/C(=C\c3ccncc3)C2=O)cc1 [Compound 51, N-Cyclohexyl-4-{2,5-dioxo-4-[1-pyndin-4-yl-meth-(Z)-ylidene]-imidazolidin-1-yl}-benzamide] |
| 36 nM | CCOC(=O)C1CCN(C(=O)c2ccc(N3C(=O)N/C(=C\c4ccncc4)C3=O)cc2)CC1 [Compound 54, 1-(4-{2,5-Dioxo-4-[1-pyridin-4-yl-meth-(Z)-ylidene]-imidazotidin-l-yl}-benzoyl)-piperidine-4-carboxylic acid ethyl ester] |
